The text below walks through data of patent US20140212437A1, “METHODS AND COMPOSITIONS FOR TREATING ATRIAL FIBRILLATION” (THE REGENTS OF THE UNIVERSITY OF MICHIGAN, priority 2013, published 2014).

“Also recorded” adds a separate entry of the source.

Assay [1] deals with adult rat ventricular myocytes. Briefly: Whole-cell patch clamp, sodium current (INa). The assay is classed as cell-based. Here is the method:
(§1) Cell Treatment: Isolated adult rat cardiac myocytes were treated with FCM or TGF-β1 (R and D systems, Minneapolis, Minn.) for 3 days in serum free medium. For PI3K pathway inhibition cells were pretreated (30 min) with 10 μM […] (Cayman Chemicals, Ann Arbor) before the treatment with TGF-β1.
Patch-clamp experiments: Whole-cell ionic currents were recorded from adult rat ventricular myocytes. All recordings were conducted at room temperature. Sodium current recordings were conducted in a low-sodium extracellular solution containing (in mM): NaCl, 10; MgCl2, 1; CaCl2, 1.8; CdCl2, 0.1; HEPES, 20; CsCl, 127.5; glucose, 11. The pipette solution contained (in mM): NaCl, 5; CsF, 135; EGTA, 10; MgATP, 5; HEPES, 5. To characterize the voltage dependence of the peak INa, single cells were held at −120 mV, and 200 msec voltage steps were applied from −90 to +30 mV in 5 mV increments. The interval between voltage steps was 3 sec. Voltage-dependence of inactivation was assessed by holding cells at various potentials from −160 to −40 mV followed by a 30 msec test pulse to −40 mV to elicit INa. Recovery from inactivation was studied by holding cells at −120 mV and applying two 20-msec test pulses (S1, S2) to −40 mV separated by increments of 2 msec to a maximum S1-S2 interval of 80 msec. The S1-S1 interval was kept constant at 3 sec.
(§2) In all experiments, cells were exposed to one of the following for 72 hrs prior to the experiment: control medium, FCM or TGF-β1.
A general note: Patch clamp records ionic current or voltage across a cell membrane.

In assay [2] the test system is adult rat ventricular myocytes. As to the kind of experiment: Whole-cell patch clamp, transient outward potassium current (Ito). The assay is classed as cell-based. Particulars: 72-hr. Here is the method: as §1
The extracellular solution for transient outward potassium current (Ito) contained (in mM): 136 NaCl, 4 KCl, 1.8 CaCl2, 2 MgCl2, 10 HEPES, 0.03 tetrodotoxin. 0.01 nifedipine, and 14 glucose, pH 7.35. The pipette solution contained (in mM): 135 KCl, 1 MgCl2, 10 EGTA, 10 HEPES, 5 glucose, pH 7.2. Voltage-gated outward K+ currents were evoked during 5-s depolarizing voltage steps to potentials between −40 and +60 mV from a holding potential of −70 mV; voltage steps were presented in 10 mV increments at 15 s intervals
as §2

The subject of assay [3] is adult rat ventricular myocytes. Briefly: Action potential recording, current clamp. The assay is classed as cell-based. Here is the method: as §1
Action potentials were recorded from individual myocytes using the current clamp mode of the MultiClamp 700B amplifier after gigaseal formation and patch break. Stimulus pulses (1-2 ms duration) were generated using a World Precision Instruments DS8000 stimulator (Sarasota, Fla.). The bath solution contained (in mM): NaCl: 148, KCl: 5.4, MgCl2: 1, CaCl2 1.8, NaH2PO4: 0.4, HEPES: 15, Glucose: 5.5, pH 7.4 with NaOH. The pipette solution contained (in mM), KCl: 20, K-aspartate: 90, KH2PO4: 10, EDTA: 5.0. K2ATP: 1.9, HEPES: 5.0 and Mg2+ 7.9; pH 7.2 (KOH)

The next assay has as its system SCN5A. As to the kind of experiment: mRNA analysis by qPCR, SCN5A. Type of assay: cell-based, rat. Here is the method:
as §1
(§3) mRNA analysis by quantitative PCR (qPCR): Cardiac myocytes were washed with PBS and lysed with lysis buffer. RNA was isolated from the myocardial tissue using RNAeasy kit from Qiagen (Qiagen, Valencia, Calif.) according to the manufacturer's instructions. Isolated RNA from these samples was treated with DNase for 15 min at room temperature (Qiagen, Valencia. CA). 100 ng of DNA-free total poly-A tail RNA (mRNA) was first subjected to synthesis of cDNA using Oligo dT primers applying SuperScript III First-Strand Synthesis System from Invitrogen (Invitrogen, Carlsbad, Calif.) according to the manufacturer's instructions. cDNA from 20 ng of total RNA was then subjected to real-time RT-PCR using predesigned taqman probe primers specific for rat Scn5a (Rn00565502), Kcnip2 (Kchip2; Rn01411451) and kcnd2 (Rn01456260) (Applied Biosystems, California). No-template controls and no-RT controls were run during each experiment to detect any RNA and/or DNA contamination. Results are expressed as fold expression of gene of interest normalized to GAPDH expression in the sample.
For orientation: In qPCR the cycle at which signal appears reflects the starting amount.

A further assay has as its system KCNIP2. Briefly: mRNA analysis by qPCR, KCNIP2. To be noted: 1 ng/ml, 72 hr. The assay is classed as cell-based, rat. Here is the method: as §3
A further assay deals with KCND2. As to the kind of experiment: mRNA analysis by qPCR, KCND2. Type of assay: cell-based, rat. To be noted: 1 ng/ml, 72 hr. Here is the method:
as §3

A further assay has as its system FOXO1. Briefly: Western blot of FOXO1 phosphorylation. Type of assay: cell-based, rat. Here is the method:
as §1
Western blotting: Control and treated cardiac myocytes were washed in cold PBS, lysed directly in the modified loading buffer (25 mmol/l Tris.HCl; 150 mmol/l NaCl; 1 mmol/l EDTA; 4 mmol/l NaF; 2 mmol/l Sodium ortho-vanadate; 1% Triton X-100, protease inhibitor, 5% glycerol, 1% SDS, 0.05% bromophenol blue. 5% β mercaptoethanol) and sonicated. The lysate (20 μl) were then subjected SDS-PAGE as described earlier. The blots were incubated with rabbit pFOXO1 antibody, 1:500 (Cell Signaling) or rabbit GAPDH antibody, 1:5000 (Sigma-Aldrich, St. Louis, Mo.).
(In general: Immunoblotting shows a protein as a band on a membrane.)

Assay [4] relates to adult sheep atrial fibroblasts. Briefly: Wound healing (in vitro migration) assay. Type of assay: cell-based. Particulars: Gal-3 vs untreated cells, days 0-2. Here is the method: (§4) Wound healing experiments were performed to investigate if exogenous Gal-3 can increase myofibroblast migration in vitro (FIG. 3). Adult sheep atrial fibroblasts were cultured in 96-well plates until confluent. Before serum starvation, cells were stained with cell tracker dye and DAPI. A wound was created by scraping a semi-confluent monolayer of cells with a 1 ml pipette tip. Thereafter, cells underwent serum starvation in DMEM with […] for 6 hrs. Comparisons were made between untreated and Gal-3 treated (1 μg/ml or 10 μg ml) cells. The wound was imaged at 4 different locations at 3 different time points (days 0, 1 and 2). The size of the wound was quantified using the NIS element program by Nikon. […] Next, to investigate the effects of Gal-3 on myofibroblast proliferation, adult sheep atrial fibroblasts were treated with recombinant human Gal-3 (EMD chemicals, USA) for 24 hours in the presence of SFM. FM was included as a positive control. Cell proliferation was measured using cell proliferation reagent WST (Roche Diagnostics, USA). […] Such concentrations are in the same range used previously (Sharma et al., Circulation. 2004; 110:3121-3128) to investigate Gal-3 induced fibroblast proliferation in the cardiomyopathic heart. […] In addition, the results strongly support the therapeutic value of Gal-3 inhibitors.

For assay [5], the system named is adult sheep atrial fibroblasts. Briefly: Cell proliferation, WST reagent. Type of assay: cell-based. To be noted: 1-30 μg/ml, 24 hours, SFM. Here is the method: as §4

As for TGF-β1, in assay [1] (1 ng/ml, 72 hours, also seen at 10 ng/ml), the “maximum INa increase” value is “about 40%”. Besides, the “more inward current compared to control medium” value in [1] (1 ng/ml, at −40V) was “about 40%”. The “peak INa density compared to control” value in assay [1] (1 ng/ml, step voltages between −60 mV and −30 mV, p<0.05-0.01) is reported as “significantly increased the peak INa density”. The “EC50 for peak inward INa density” value in [1] (72 hours, 0.001-1.0 ng/ml) turned out to be 0.007 ng/mL. Moreover, in [1] (72 hr treatment or viral overexpression), the “voltage dependence of activation (m∞) and inactivation (h∞)” value is recorded as “neither the m∞ nor the h∞ curve was modified”. Further, the “peak Ito” value in assay [2] (1 ng/ml) is on record as “significantly reduced the peak Ito but to a much modest level”. Moreover, the “Ito current density, % of control levels” value in [2] (10 ng/ml, at 60 mV) is on record as 57%. Further, in [2] (10 ng/ml, at +20 mV), the “reduction of Ito current density” value was 42%. In assay [2] (10 ng/ml, control 22.2±1.2), the “Ito current density at 60 mV” value is given as 12.6±0.98. For the same compound, the “Ito compared to control” value in assay [2] (10 ng/ml, voltages between +20 mV and +60 mV) is “significantly lower than control”. The “action potential duration (APD)” value in assay [3] (10 ng/ml, 72 hours) is reported as “basic cycle length (BCL) dependent action potential duration (APD) prolongation”. For the same compound, the “APD30 relative to control” value in assay [3] (10 ng/ml, BCL of 1000 ms) is recorded as greater than 3.5 times. The APD30 in assay [3] (10 ng/ml, BCL of 1000 ms, control 8.1±3.6) came out at 29.1 ± 5.6 ms. Also, the “action potential duration / early afterdepolarizations” value in assay [3] (50 ng/ml) was “APD was so prolonged that some cells early afterdepolarizations (EADs)”. For the same compound, the “SCN5A transcript levels, increase” value with SCN5A (1 ng/ml, 72 hr) was 1.73±0.26 fold. Also, the “reduction of mRNA levels of KCNIP2” value with KCNIP2 came out at 77%. The “decrease of KCND2 expression with respect to control” value in the assay on KCND2 is 50.6%. Besides, the “increase in phosphorylated FOXO1 compared to control” value in the assay on FOXO1 (1 ng/ml) was found to be 67%. Besides, the “exposure time of peak FOXO1 phosphorylation” value with FOXO1 (1 ng/ml, phosphorylation seen at 5 min) was determined as 15 min.
Consider `O=c1cc(N2CCOCC2)oc2c(-c3ccccc3)cccc12` [LY 29004, reference compound], for which the “TGF-β1-induced increase in SCN5A transcription” value in the assay on SCN5A (pretreated 30 min with 10 μM) was “failed to show increased SCN5A transcription”. The “phosphorylation of FOXO1 in TGF-β1 treated cells” value in the assay on FOXO1 (pretreated 30 min with 10 μM) is “inhibited”.
Consider “Gal-3: recombinant human Gal-3 (EMD chemicals, USA) added exogenously to sheep atrial fibroblasts”, for which the “rate of migration / wound healing” value in assay [4] is “significantly increased the rate of migration and promoted wound healing; also recorded: increases the rate of wound healing”. Besides, the “number of adult sheep atrial myofibroblasts (proliferation)” value in assay [5] was “increased the number of adult sheep atrial myofibroblasts in a concentration-dependent manner; also recorded: increases proliferation”.
